# Source: patent EP4438030A1, “TERNARY ANTI-SPOT COMBINATION TO LIGHTEN SKIN” (E Grau Active Cosmetics, S.L.U., priority 2023, dated 2024)
# Tested on: Normal human epidermal melanocytes
# Settings: melanocytes irradiated with ultraviolet light (2.5 J/cm2), 96 hours; mixture 0.0003% hydroxytyrosol, 0.00001% maslinic acid, 0.001% vitamin C (w/w); hydroquinone 10-8% (w/w)
# Method: Normal human epidermal melanocytes were cultured in 48-well plates at a density of 2×10^4 cells/well overnight in a CO2 incubator at 37°C in the culture medium called Melanocyte Growth Medium (PromoCell, R.F.A.). The culture medium was then removed and replaced with fresh medium, and the cells were cultured for 96 hours in the presence of a mixture containing 0.0003% (w/w) of hydroxytyrosol, 0.00001% (w/w) of maslinic acid and 0.001% (w/w) of vitamin C. […] To mimic exposure to sunlight, the cells were irradiated with ultraviolet light for the last 48 hours in 4 cycles lasting 15 minutes. Irradiation measurements indicated a total dose of 2.5 J/cm2. Melanin was extracted by adding 1 M sodium hydroxide and incubating at 60°C for 1 h.
# In parallel, a cell viability assay was carried out using 3-(4,5-dimethylthiazol-2-yl)-2,5-diphenyltetrazolium bromide dye (MTT Assay) to normalise melanin values to cell levels and thus correct possible interferences due to small variations in the number of cells in each well.
smiles,measurement,value
Oc1ccc(O)cc1 [hydroquinone],reduction of melanin production,42%
